Results on 3 compounds are retold here after patent publication US20040157902A1, “Integrin antagonists” (priority 2001, published 2004).

Each structure is given as a SMILES string.

This data set in a line: partition coefficient octanol/water at pH 7.4 (logD(7.4)). The class given is physicochemical. The text has this: If an active ingredient is introduced into an octanol/water mixture, it partitions between the two phases at a given pH in accordance with its lipophilicity/hydrophilicity. The ratio of the partitioning of the active ingredient between the octanol and water phases is known as the partition coefficient. Absorption of active ingredients requires that they both dissolve in aqueous media and also pass through the corresponding membranes. For the latter, a certain lipophilicity of the active ingredient is necessary. The requisite lipophilicity arises from the lipophilicity of the respective membrane. Thus, absorption in the intestine requires a logD value of >−1.50 and passage through the blood-brain barrier requires a logD value of >0.5 (Lipinski C. A: Adv. Drug Del. Rev. 23 (1997), 3-25). A favourable logD value is an essential prerequisite for absorption of an active ingredient.
logD values given above and below are partition coefficients of the compounds in question octanol/water at a pH of 7.4 (logD(7.4)).
As to `O=C(CNC(=O)NCCCNc1ccccn1)NC(Cc1nnn[nH]1)c1ccc(-c2ccccc2)cc1` (stereo not drawn) [EMD 387 890, N-[1-biphenyl-4-yl-2-(1H-tetrazol-5-yl)ethyl]-2-{3-[3-(pyridin-2-ylamino)propyl]ureido}acetamide], the logD is 6.19.

For `O=C(CCCCNc1ccccn1)NCC(=O)NC(Cc1nnn[nH]1)c1ccc(-c2ccccc2)cc1` (stereo not drawn) [EMD 389 889, N-[1-biphenyl-4-yl-2-(1H-tetrazol-5-yl)ethyl]-2-[5-(pyridin-2-ylamino)pentanoylamino]-acetamide], the logD was 6.52.

Compound `CS(=O)(=O)NC(=O)CC(NC(=O)CNC(=O)CCCCNc1ccccn1)c1ccc(-c2ccccc2)cc1` (stereo not drawn) [EMD 387 803] showed a logD of -0.38.

As a reminder, the logD is lipophilicity at a set pH, counting ionised and neutral species. Low values mean lower lipophilicity, high ones higher lipophilicity.
